The subject of data set [1] is Protease type-XXIV. The data set is described as follows: Screening of globulin component-selective protease inhibitors (HSA substrate with/without γ-globulin). It is filed as biochemical, Bacillus. Particulars: additive concentration 1.0%; control 23.8. The source says:
Using protease type-XXIV (manufactured by Sigma-Aldrich Co.) having high reactivity with the HSA substrate solution, components that decrease the protease reaction with the above globulin substrate solutions were screened based on the HSA substrate solution.
In the R-1 proteolytic reagent, as the deoxycholic acid amide, bisgluconamidopropyldeoxycholamide was used; as the cholic acid amide, 3-[(3-cholamidopropyl)dimethvlammonio]propane sulfonic acid, 3-[(3-cholamidopropyl)dimethylammonio]-2-hydroxypropane sulfonic acid, or bisgluconamidopropylcholamide was used; as the quaternary ammonium salt, benzyltriethylan chloride or benzyltri-n-butylammonium chloride was used; and as quatemary ammonium salt-type cationic surfactant, lauryltrimethylammonium chloride or lauryldimethylamine oxide was used.
• 1. HSA substrate solution: Albumin Human: 40 mg/ml, GA %=10.5% [manufactured by Wako Pure Chemical Industries, Ltd., the albumin concentration in the substrate solution was assayed using an albumin assay kit (albumin II-HA Test Wako; manufactured by Wako Pure Chemical Industries, Ltd.). GA % was assayed using a glycated albumin analyzer (GAA-2000, manufactured by ARKRAY, Inc.). • 2. γ-globulin addition substrate solution, 17.0 mg/ml of γ-globulin [γ-Globulins Human (manufactured by Sigma-Aldrich Co.), Fructosamine value=34 μM] was added to the above HSA substrate solution. <Reaction Procedure>
Absorbances at a wavelength of 546 nm were measured before and after the addition of R-2. The difference of the two measurements was regarded as the absorbance change. The same procedure was conducted using distilled water instead of the substrate to prepare a blank sample. In addition, a reaction solution without the addition of the globulin-selective protease inhibitor was used as a control.
ΔA (HSA) was calculated by subtracting the absorbance change of the blank sample from the absorbance change obtained for the HSA substrate solution. ΔA(+γ-globulin) was calculated by subtracting the absorbance change of the blank sample from the absorbance change obtained for the substrate solution to which γ-globulin was added. Effect of γ-globulin addition=(ΔA(+γ-globulin)−ΔA(HSA))/ΔA(HSA)×100(%)

The subject of data set [2] is R-FOD-II. The data set is described as follows: Stabilization of enzyme reacting at least with glycated amino acid. It is filed as biochemical. Particulars: for decrease in performance of glycated amino acid assay reagent: storage for four weeks at 37° C.; for stabilization effect on glycated amino acid assay reagent (relative sensitivity): without stabilizer 30%; for storage stability effect: stored in a liquid state in a refrigerator. How it is done: 8 μl of a sample was added to 240 μl of the proteolytic reagent incubated at 37° C. […] A relative sensitivity for the experiment using the reagent containing a stabilizer to the experiment using the reagent not containing a stabilizer was calculated assuming that ΔA0 obtained using the reagent not containing a stabilizer and used without storing is 100%.

For data set [3], the target named is T1, albumin (Homo sapiens, UniProt P02768).
T1 construct: from tissue; host or cells: human blood serum (healthy persons, patients; albumin purified with boric acid-immobilized resin)
The data set is described as follows: Albumin assay by BCP method after pretreatment with protein denaturing agent and/or compound having S—S bond. Particulars: for albumin value by BCP method, sample GA: immunological method 8.1, no pretreatment 7.9; for albumin value by BCP method, sample NGA: immunological method 37.5, no pretreatment 36.1; for albumin value by BCP method, sample Blood serum of patients: immunological method 40.5, no pretreatment 36.2. How it is done: The following compounds 1)-9) were used as the protein denaturing agent and/or the compound having S—S bond in the R-1 pretreatment reagent. • 1) 6,6′-dithiodinicotinic acid: 100 mM • 2) 3,3′-dithiodipropionic acid: 100 mM • 3) 2,2′-dithiodibenzoic acid: 100 mM • 4) 4,4′-dithiodimorpholine: 100 mM • 5) DTNB (50 mM) • 6) DDD (33 mM) • 7) 2-PDS (25 mM) • 8) 4-PDS (50 mM) • 9) SDS (0.3%) • 1)-5) manufactured by Wako Pure Chemical Industries, Ltd. • 6)-9) manufactured by Dojindo Laboratories <Samples>
Glycated lbumin, non-glycated albumin, blood serum of healthy persons, and blood serum of patients were used as samples, and distilled water was used as a blank. Glycated albumin and non-glycated albumin were obtained from human blood serum, albumin was purified by known method and using a boric acid-immobilized resin.
2 μl of a sample was added to 160 μl of the pretreatment reagent incubated at 37° C. […] Absorbance at 600 nm was measured before the addition of the albumin coloring reagent and five minutes after the addition of the albumin coloring reagent. A calibration curve was prepared using distilled water and a sample with a known albumin concentration instead of the sample. A sample was separately assayed by an immune method using a latex reagent (LX reagent, Alb-II, manufactured by Eiken Chemical Co., Ltd.) as a control.

The mark [4] stands for this setting: stored at 37° C. for two days, FIG. 6.
[5] abbreviates: pretreatment reagent at concentration of b299.
Where [6] appears, read: pretreatment reagent at concentration of b299, immunological method 43.0, no pretreatment 38.4.

Like-named read-outs stand apart in the source and are kept apart here.

T1 sequence (P02768 25-609): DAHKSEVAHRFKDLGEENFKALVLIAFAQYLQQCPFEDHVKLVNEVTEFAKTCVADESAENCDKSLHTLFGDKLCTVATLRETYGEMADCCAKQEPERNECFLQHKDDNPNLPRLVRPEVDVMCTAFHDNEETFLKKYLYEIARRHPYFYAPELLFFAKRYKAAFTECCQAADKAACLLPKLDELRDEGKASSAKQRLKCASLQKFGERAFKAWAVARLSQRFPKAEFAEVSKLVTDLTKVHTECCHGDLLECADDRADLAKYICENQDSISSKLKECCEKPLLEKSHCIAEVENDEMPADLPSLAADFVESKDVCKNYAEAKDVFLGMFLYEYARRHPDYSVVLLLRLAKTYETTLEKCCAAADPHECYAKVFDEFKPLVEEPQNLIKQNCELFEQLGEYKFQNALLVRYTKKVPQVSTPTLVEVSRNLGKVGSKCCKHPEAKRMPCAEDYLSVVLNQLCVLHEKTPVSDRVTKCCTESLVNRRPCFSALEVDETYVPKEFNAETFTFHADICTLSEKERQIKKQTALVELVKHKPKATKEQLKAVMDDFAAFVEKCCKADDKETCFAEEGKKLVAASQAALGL

With `CC(CCC(=O)NCCC[N+](C)(C)CC(O)CS(=O)(=O)[O-])C1CCC2C3C(O)CC4CC(O)CCC4(C)C3CC(O)C12C` (centres unmarked) [3-[3-cholamidopropyl)dimethylammonio]-2-hydroxypropane sulfonic acid], in data set [1], the “Effect of γ-globulin (%)” value is 18.0%.
`C[C@H](CCC(=O)NCCC[N+](C)(C)CCCS(=O)(=O)[O-])[C@H]1CC[C@H]2[C@@H]3[C@H](O)C[C@@H]4C[C@H](O)CC[C@]4(C)[C@H]3C[C@H](O)[C@]12C` [3-[(3-cholamidopropyl)dimethylammonio]propane sulfonic acid]: in data set [1], the “Effect of γ-globulin (%)” value is given as 17.9%.
Turning to `CCCC[N+](CCCC)(CCCC)Cc1ccccc1.[Cl-]` [Benzyltributylammonium chloride], the “Effect of γ-globulin (%)” value in data set [1] amounted to 15.1%.
Consider `CC[N+](CC)(CC)Cc1ccccc1.[Br-]` [Benzyltriethylammonium bromide], for which the “Effect of γ-globulin (%)” value in data set [1] amounted to 22.9%.
Consider `C[C@H](N)C(=O)O` [L-alanine, L-Alanine], for which, in data set [2], the “decrease in performance of glycated amino acid assay reagent” value was “almost no decrease in performance” and the storage stability effect result was “one or more years”. Further, the “stabilization effect on glycated amino acid assay reagent (relative sensitivity)” value (“stabilization effect … (relative sensitivity)” for short) in data set [2] (setting [4]) is listed as “stabilization effect”.
For `N[C@@H](CCC(=O)O)C(=O)O` [L-glutamic acid, L-Glutamic acid], in data set [2] (setting [4]), the “stabilization effect … (relative sensitivity)” value is recorded as “stabilization effect”.
Still for that read-out and setting: under `NC(=O)CC[C@H](N)C(=O)O` [L-glutamine, L-Glutamine] stands “stabilization effect”.
Take `NCCCC[C@H](N)C(=O)O` [L-lysine, L-Lysine]: in data set [2] (setting [4]), the “stabilization effect … (relative sensitivity)” value is listed as “stabilization effect”.
In the case of `O=C(O)[C@@H]1CCCN1` [L-proline, L-Proline], the “stabilization effect … (relative sensitivity)” value in data set [2] (setting [4]) was “stabilization effect”.
Consider `CC(C)[C@H](N)C(=O)O` [L-valine, L-Valine], for which, in data set [2] (setting [4]), the “stabilization effect … (relative sensitivity)” value is listed as “stabilization effect”.
Take `O=C(O)c1ccc(SSc2ccc(C(=O)O)cn2)nc1` [Reagent 1, 6,6′-dithiodinicotinic acid]: in data set [3], the “albumin value by BCP method, sample Blood serum of healthy parsons” value (“albumin value … of healthy parsons” below) was found to be 38.2. In addition, in data set [3] (setting [5]), the “albumin value by BCP method, sample GA” value amounted to 7.6; the “albumin value by BCP method, sample NGA” value came to 35.6; the “albumin value by BCP method, sample Blood serum of patients” value (“albumin value by BCP method … of patients” below) stood at 36.7.
In the case of `O=C(O)CCSSCCC(=O)O` [Reagent 2, 3,3′-dithiodipropionic acid], in data set [3] (setting [5]), the “albumin value by BCP method, sample GA” value was determined as 7.9; the “albumin value by BCP method, sample NGA” value was 35.7; the “albumin value by BCP method … of patients” value is reported as 37.0. Also, the “albumin value … of healthy parsons” value in data set [3] (setting [6]) is 37.9.
For the compound `O=C(O)c1ccccc1SSc1ccccc1C(=O)O` [Reagent 3, 2,2′-dithiodibenzoic acid], in data set [3], the “effect of pretreatment on decreasing deviation from the immune method” value is “particularly remarkable”. In data set [3] (setting [5]), the “albumin value by BCP method, sample GA” value came out at 7.7; the “albumin value by BCP method, sample NGA” value turned out to be 38.0; the “albumin value by BCP method … of patients” value is on record as 35.0. Besides, the “albumin value … of healthy parsons” value in data set [3] (setting [6]) was found to be 40.1.
`C1CN(SSN2CCOCC2)CCO1` [Reagent 4, 4,4′-dithiodimorpholine]: the “effect of pretreatment on decreasing deviation from the immune method” value in data set [3] is reported as “particularly remarkable”. Moreover, in data set [3] (setting [5]), the “albumin value by BCP method, sample GA” value was 7.7; the “albumin value by BCP method, sample NGA” value is 39.5; the “albumin value by BCP method … of patients” value was determined as 31.3. The “albumin value … of healthy parsons” value in data set [3] (setting [6]) is listed as 41.3.
Take `O=C(O)c1cc(SSc2ccc([N+](=O)[O-])c(C(=O)O)c2)ccc1[N+](=O)[O-]` [Reagent 5, 5,5′-dithiobis-(2-nitrobenzoic acid)]: the “effect of pretreatment on decreasing deviation from the immune method” value in data set [3] is given as “particularly remarkable”. Besides, in data set [3] (setting [5]), the “albumin value by BCP method, sample GA” value is 8.7; the “albumin value by BCP method, sample NGA” value is on record as 38.4; the “albumin value by BCP method … of patients” value was found to be 35.5. The “albumin value … of healthy parsons” value in data set [3] (setting [6]) was determined as 38.3.
In the case of `Oc1ccc2cc(SSc3ccc4cc(O)ccc4c3)ccc2c1` [Reagent 6, 2,2′-dihydroxy-6,6′-dinaphthyl disulfide], the “effect of pretreatment on decreasing deviation from the immune method” value in data set [3] is recorded as “particularly remarkable”. For the same compound, in data set [3] (setting [5]), the “albumin value by BCP method, sample GA” value was found to be 7.6; the “albumin value by BCP method, sample NGA” value amounted to 36.9; the “albumin value by BCP method … of patients” value was determined as 37.7. For the same compound, in data set [3] (setting [6]), the “albumin value … of healthy parsons” value stood at 39.1.
As for `c1ccc(SSc2ccccn2)nc1` [Reagent 7, 2,2′-dithiopyridine], in data set [3], the “effect of pretreatment on decreasing deviation from the immune method” value is “particularly remarkable”. Moreover, in data set [3] (setting [5]), the “albumin value by BCP method, sample GA” value worked out at 7.8; the “albumin value by BCP method, sample NGA” value is on record as 36.8; the “albumin value by BCP method … of patients” value turned out to be 36.8. Also, in data set [3] (setting [6]), the “albumin value … of healthy parsons” value is 38.9.
Turning to `c1cc(SSc2ccncc2)ccn1` [Reagent 8, 4,4′-dithiopyridine], the “effect of pretreatment on decreasing deviation from the immune method” value in data set [3] is reported as “particularly remarkable”. In data set [3] (setting [5]), the “albumin value by BCP method, sample GA” value was 7.5; the “albumin value by BCP method, sample NGA” value is 36.2; the “albumin value by BCP method … of patients” value is recorded as 36.2. In addition, the “albumin value … of healthy parsons” value in data set [3] (setting [6]) worked out at 38.8.
On to `CCCCCCCCCCCCOS(=O)(=O)[O-].[Na+]` [Reagent 9, sodium lauryl sulfate], for which, in data set [3], the “albumin value … of healthy parsons” value is recorded as 43.7 and the “effect of pretreatment on decreasing deviation from the immune method” value is recorded as “particularly remarkable”. Besides, in data set [3] (setting [5]), the “albumin value by BCP method, sample GA” value came to 7.8; the “albumin value by BCP method, sample NGA” value is given as 37.4; the “albumin value by BCP method … of patients” value stood at 40.7.
Consider `N.N.O=S(=O)(O)O` [ammonium sulfate, Ammonium sulfate], for which, in data set [2] (setting [4]), the “stabilization effect … (relative sensitivity)” value is reported as “stabilization effect”.
As to `[Cl-].[Cl-].[Mg+2]` [magnesium chloride, Magnesium chloride], the “stabilization effect … (relative sensitivity)” value in data set [2] (setting [4]) is “stabilization effect”.
Regarding `OC[C@@H](O)[C@@H](O)[C@H](O)[C@H](O)CO` [mannitol, Mannitol], the “stabilization effect … (relative sensitivity)” value in data set [2] (setting [4]) is “stabilization effect”.
In the case of `CNCC(=O)O` [sarcosine, Sarcosine], in data set [2], the “decrease in performance of glycated amino acid assay reagent” value is on record as “almost no decrease in performance” and the storage stability effect result is on record as “one or more years”. In data set [2] (setting [4]), the “strength of stabilization effect” value was “particularly strong stabilization effect” and the “stabilization effect … (relative sensitivity)” value was “stabilization effect”.
As for `OC[C@@H](O)[C@@H](O)[C@H](O)[C@@H](O)CO` [sorbitol, Sorbitol], the “stabilization effect … (relative sensitivity)” value in data set [2] (setting [4]) was “stabilization effect”.
In the case of `OC[C@H]1O[C@@](CO)(O[C@H]2O[C@H](CO)[C@@H](O)[C@H](O)[C@H]2O)[C@@H](O)[C@@H]1O` [sucrose, Sucrose], the “stabilization effect … (relative sensitivity)” value in data set [2] (setting [4]) is reported as “stabilization effect”.
Consider `OC[C@H]1O[C@H](O[C@H]2O[C@H](CO)[C@@H](O)[C@H](O)[C@H]2O)[C@H](O)[C@@H](O)[C@@H]1O` [trehalose, Trehalose], for which the “stabilization effect … (relative sensitivity)” value in data set [2] (setting [4]) is reported as “stabilization effect”.

Values taken from patent US7250269B2, “Composition for assaying glycoprotein” (Asahi Kasei Pharma Corporation, priority 2001, dated 2007).
